# Where “and” joins values, the source holds several entries; their conditions need not be identical. Identical values can stand only once. Entries after “also recorded” stand apart in the source; their conditions may differ.
# What was measured:
# MAPK (Erk1, 2) [1] = experiment: EGF-stimulated MAPK phosphorylation in MDA-MB-468 cells (Western blot); type: cell-based, human; conditions: at concentrations as low as 1 μM
# Method: (§1) Autophosphorylation assay: Inhibition of receptor autophosphorylation in viable cells was determined by anti-phosphotyrosine Western blots as previously described (19). […] Equal amounts of cell lysates were analyzed by Western blot using anti-phosphotyrosine antibodies. Membranes were stripped of anti-phosphotyrosine and reprobed with anti-EGFR or anti-erbB2 antibodies (NeoMarkers, Fremont, Calif.). To study whether an inhibition is reversible or not, duplicate sets of cells were treated with 2 μM of designated compound for 2 h. One set of cells was then stimulated with EGF. The other set of cells was washed free of the compound with warmed serum-free media, incubated for 2 h, washed again, incubated for another 2 h, and incubated for a further 4 h after a subsequent wash. This set of cells was then stimulated with EGF. Western blot was performed as previously described. […] The membrane was incubated with anti-phosphorylated MAPK (Erk1,2) or anti-Erk 1,2 antibodies (Cell Signaling Technology Inc., Beverly, Mass.).
# [2] = test system: human breast carcinoma MDA-MB-468; experiment: In vivo efficacy, MDA-MB-468 implanted s.c.; design: species or system SCID mice
# Method: In vivo studies: SCID mice were maintained as per McGill animal safety protocols. In a preliminary model, SCID mice housed in filtered cages were implanted subcutaneously (s.c.) with the human breast carcinoma MDA-MB-468 and treatment began when the tumors were palpable (8 mice/group). […] The tumor burdens were measured with a caliper and mice were weighed twice weekly. The study was later repeated with the MDA-MB-468 cells implanted in the mammary fat pad, a model that better mimics human breast carcinoma.
# MDA-MB-468 cells = experiment: Annexin V binding (apoptosis), flow cytometry; type: cell-based, human
# Method: Annexin V Binding: Cells were grown in 6-well plates until confluence and then incubated with the compounds for 24 h, 48 and 72 h. The cells were then harvested, washed twice with PBS, and centrifuged. Cells (10^5) were treated with annexin V-FITC and propidium iodide (PI) using the Apoptosis Detection Kit (BD Bioscience Pharmingen, USA) and the supplier's protocol. Annexin V-FITC and PI binding were analyzed by flow cytometry. Data were collected using logarithmic amplification of both the FL1 (FITC) and FL2 (PI) channels. Quadrant analysis of co-ordinate dot plots was performed with CellQuest software. Unstained cells were used to adjust the photomultiplier voltage and for compensation setting adjustment in order to eliminate spectral overlap between the FL1 and FL2 signals.
# Water solubility = type: physicochemical
# erbB2 = biological target: T1, erbB2 (Homo sapiens, UniProt P04626); experiment: Heregulin-induced autophosphorylation in MDA-MB-453 cells (Western blot); type: cell-based; conditions: 2 h preincubation, heregulin 10 min
# T1 construct: heregulin-induced autophosphorylation in MDA-MB-453 cells; endogenous in cells; host or cells: MDA-MB-453 (ATCC)
# Method: as §1
# MAPK (Erk1, 2) [3] = experiment: Heregulin-stimulated MAPK phosphorylation in MDA-MB-453 cells (Western blot); type: cell-based, human
# Method: as §1
# NIH3T3HER14 cells = experiment: Growth factor-stimulated proliferation, SRB assay; type: cell-based, mouse; conditions: 72 h
# Method: In vitro growth inhibition assay: To study the effect of the compounds on growth factor stimulated-proliferation, cells were grown to 70% of confluence in 48-well plates. They were subsequently washed twice with PBS, incubated in serum-free medium for 18 h and exposed to each drug+growth factors (EGF, TGFα, PDGF or serum) for 72 h. Cell growth was measured using the sulforhodamine B (SRB) assay (24). Briefly, following drug treatment, cells were fixed using 50 μl of cold trichloroacetic acid (50%) for 60 min at 4° C., washed five times with tap water, and stained for 30 min at room temperature with SRB (0.4%) and dissolved in acetic acid (0.5%). The plates were rinsed five times with 1% acetic acid and allowed to air dry. The resulting colored residue was dissolved in 200 μl of Tris base (10 mM), and the optical density read for each well at 450 nm using a Bio-Rad microplate reader (model 2550). […] Cell growth was measured using SRB assay as described previously.
# [4] = Chemical stability of combi-molecules; type: physicochemical
# DNA of MDA-MB-468 cells = experiment: Alkaline comet assay for DNA damage; type: cell-based, human; conditions: 2 h drug exposure
# Method: Alkaline Comet Assay for quantization of DNA damage: The alkaline comet assay was performed as described in previously published procedures (19, 20). The cells were exposed to drugs for 2 h, harvested with trypsin-EDTA and re-suspended in PBS. Cell suspensions were diluted to approximately 10^6 cells, and mixed with agarose (1%) in PBS at 37° C. in a 1:10 dilution. The gels were cast on Gelbond strips (Mandel Scientific, Canada) using gel casting chambers and then immediately placed into a lysis buffer [2.5 M NaCl, 0.1 M tetra-sodium EDTA, 10 mM Tris-base and 1% (v/v) Triton X-100, pH 10.0]. After being kept on ice for 30 min, the gels were gently rinsed with distilled water and immersed in a second lysis buffer (2.5 M NaCl, 0.1 M tetrasodium EDTA, 10 mM Tris-base) containing 1 mg/ml proteinase K for 60 min at 37° C. Thereafter, the gels were rinsed with distilled water, incubated in alkaline electrophoresis buffer for 30 min at 37° C., and electrophoresed at 19 V for 20 min. […] Comets were visualized at 330× magnification and DNA damage was quantitated using the Tail Moment parameter (i.e., the distance between the barycenter of the head and the tail of the comet multiplied by the percentage of DNA within the tail of the comet). A minimum of 50 cell/comets were analyzed for each sample, using ALKOMET version 3.1 image analysis software.
# EGFR = EGFR (Homo sapiens, UniProt P00533); experiment: Reversibility of EGFR autophosphorylation inhibition in MDA-MB-468 cells (washout, 8 h); type: cell-based; design: EGF-induced EGFR autophosphorylation in MDA-MB-468 cells; endogenous in cells; host or cells: MDA-MB-468 (ATCC)
# EGFR, sequence (P00533 25-1210): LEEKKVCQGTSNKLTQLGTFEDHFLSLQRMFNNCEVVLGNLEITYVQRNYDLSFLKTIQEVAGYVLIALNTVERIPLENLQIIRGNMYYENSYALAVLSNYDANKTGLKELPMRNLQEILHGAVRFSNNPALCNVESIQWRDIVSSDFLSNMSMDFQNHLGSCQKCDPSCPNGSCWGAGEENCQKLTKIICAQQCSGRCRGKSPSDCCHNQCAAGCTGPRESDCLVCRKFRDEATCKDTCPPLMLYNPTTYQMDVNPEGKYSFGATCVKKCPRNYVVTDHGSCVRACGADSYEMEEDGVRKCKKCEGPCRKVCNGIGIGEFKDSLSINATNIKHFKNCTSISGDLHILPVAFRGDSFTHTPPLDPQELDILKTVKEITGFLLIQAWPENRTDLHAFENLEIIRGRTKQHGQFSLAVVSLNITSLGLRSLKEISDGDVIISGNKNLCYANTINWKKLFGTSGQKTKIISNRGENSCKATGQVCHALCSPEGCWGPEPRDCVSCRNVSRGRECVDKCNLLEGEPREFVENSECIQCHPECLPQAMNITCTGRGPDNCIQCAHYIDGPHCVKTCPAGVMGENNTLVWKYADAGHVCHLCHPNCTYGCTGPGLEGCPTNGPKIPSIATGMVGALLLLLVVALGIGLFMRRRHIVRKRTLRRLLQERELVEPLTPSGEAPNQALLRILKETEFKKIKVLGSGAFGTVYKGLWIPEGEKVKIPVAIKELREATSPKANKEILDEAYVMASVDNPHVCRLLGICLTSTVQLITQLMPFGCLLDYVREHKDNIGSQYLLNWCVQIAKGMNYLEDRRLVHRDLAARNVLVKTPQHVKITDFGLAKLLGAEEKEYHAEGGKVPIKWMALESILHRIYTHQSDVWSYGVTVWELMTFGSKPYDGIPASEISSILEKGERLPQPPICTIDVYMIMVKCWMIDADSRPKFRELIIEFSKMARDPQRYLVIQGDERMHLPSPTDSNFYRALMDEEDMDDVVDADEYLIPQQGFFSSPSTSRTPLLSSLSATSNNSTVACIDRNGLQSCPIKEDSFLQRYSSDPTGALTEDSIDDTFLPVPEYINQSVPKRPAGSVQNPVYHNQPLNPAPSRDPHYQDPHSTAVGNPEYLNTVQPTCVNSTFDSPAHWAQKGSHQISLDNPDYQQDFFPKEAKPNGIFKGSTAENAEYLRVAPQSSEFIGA
# Method: To test this hypothesis, the reversibility assay described by Fry et al. (13) and Smaill et al. (14) was used, according to which the cells are treated with inhibitors (2 μM) for 2 h and then washed free of drug. After 8 h, EGF was added; after a 10-min incubation the cells were lysed, and the degree of EGFR autophosphorylation measured.
# T1 sequence (P04626 23-1255): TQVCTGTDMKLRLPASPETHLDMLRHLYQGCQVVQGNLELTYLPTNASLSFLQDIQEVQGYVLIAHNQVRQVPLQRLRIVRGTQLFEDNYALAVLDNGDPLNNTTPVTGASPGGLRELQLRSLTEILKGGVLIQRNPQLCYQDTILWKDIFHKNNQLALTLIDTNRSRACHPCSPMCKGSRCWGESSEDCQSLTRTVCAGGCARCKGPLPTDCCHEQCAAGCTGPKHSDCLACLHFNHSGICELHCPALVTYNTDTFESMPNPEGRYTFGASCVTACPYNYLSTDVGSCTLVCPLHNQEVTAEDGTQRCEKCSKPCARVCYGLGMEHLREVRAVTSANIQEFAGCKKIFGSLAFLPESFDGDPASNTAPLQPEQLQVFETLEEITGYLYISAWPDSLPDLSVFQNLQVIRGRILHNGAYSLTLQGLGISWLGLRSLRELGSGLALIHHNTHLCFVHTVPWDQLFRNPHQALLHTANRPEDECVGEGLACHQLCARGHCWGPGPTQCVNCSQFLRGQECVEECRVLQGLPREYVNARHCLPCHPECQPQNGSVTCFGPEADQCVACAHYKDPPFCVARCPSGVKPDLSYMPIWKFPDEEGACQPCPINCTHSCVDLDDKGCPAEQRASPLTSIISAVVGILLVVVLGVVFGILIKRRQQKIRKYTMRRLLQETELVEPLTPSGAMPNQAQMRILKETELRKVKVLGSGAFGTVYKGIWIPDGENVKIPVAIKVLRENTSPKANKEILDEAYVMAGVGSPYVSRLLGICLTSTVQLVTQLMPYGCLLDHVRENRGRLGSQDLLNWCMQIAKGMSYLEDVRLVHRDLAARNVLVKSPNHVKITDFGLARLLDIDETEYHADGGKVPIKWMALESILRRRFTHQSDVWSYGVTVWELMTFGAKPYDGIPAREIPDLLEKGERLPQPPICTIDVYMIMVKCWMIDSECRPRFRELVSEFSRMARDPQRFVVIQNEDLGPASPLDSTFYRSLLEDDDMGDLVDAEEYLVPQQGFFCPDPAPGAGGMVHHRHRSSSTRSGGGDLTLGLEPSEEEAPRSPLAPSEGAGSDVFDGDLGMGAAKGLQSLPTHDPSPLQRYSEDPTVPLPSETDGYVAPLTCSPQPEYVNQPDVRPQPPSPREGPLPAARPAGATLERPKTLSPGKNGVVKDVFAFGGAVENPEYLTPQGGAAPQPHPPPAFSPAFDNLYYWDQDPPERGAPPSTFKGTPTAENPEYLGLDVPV
structure (smiles),measurement,setting,value
ClCCNc1ccc2ncnc(Nc3cccc(Br)c3)c2c1 [ZR2002],inhibition of EGF-stimulated phosphorylation of MAPK,"MAPK (Erk1, 2) [1]",100%
same,in vivo antitumor activity,"[2]; 50 mg/kg i.p. every 3-4 days, one month, s.c. tumors, p<0.001 vs vehicle",modest; also recorded: moderate antiproliferative activity
same,tolerated dose,"[2]; SCID mice, i.p.",50 mg/kg
same,concentration at which detectable levels of apoptosis start,MDA-MB-468 cells,5 µM
same,water solubility (in words),Water solubility,reduced water solubility
same,IC50,erbB2,~230 nM and 236 nM
same,heregulin-stimulated MAPK phosphorylation,"MAPK (Erk1, 2) [3]",blocked heregulin-stimulated MAPK phosphorylation
same,EGF or TGFα-induced proliferation,NIH3T3HER14 cells,selectively blocking
same,inhibition at 1 µM,"NIH3T3HER14 cells; Mus musculus, at 1 μM, read-out: inhibition of PDGF-stimulated growth",100%
same,inhibition at 10 µM,"NIH3T3HER14 cells; Mus musculus, at concentrations >10 μM, read-out: inhibition of serum-stimulated growth",100%
same,inhibition at 0.1 µM,"NIH3T3HER14 cells; Mus musculus, at concentrations as low at 0.1 μM, read-out: inhibition of EGF-stimulated growth",100%
same,chemical stability (in words),[4],stable compound that does not self-alkylate
same,"DNA damage (tail moment), in words",DNA of MDA-MB-468 cells,damages DNA in a dose dependent manner
same,concentration inducing significant DNA damage,DNA of MDA-MB-468 cells,10 µM
same,mode of EGFR inhibition (reversible / irreversible),EGFR,irreversible inhibitor of EGFR
same,EGF-dependent EGFR autophosphorylation immediately after drug exposure,"EGFR; 2 μM, 2 h",completely suppressed

# Reference: patent US7879861B2, “Combi-molecules having EGFR and DNA targeting properties” (priority 2005, dated 2011)
